The record followed here is patent US11629139B2 (priority 2017, dated 2023).

As usually defined, the Cmax is the maximum level reached in the sampled fluid or tissue. For orientation: Tmax means the time from dosing to the highest level. Usually half-life stands for the time in which the quantity being followed falls by half. The IC50 is the concentration that inhibits the measured activity by half. Low values mean inhibition by little substance, high ones a need for much substance. In general, solubility (kinetic) refers to the concentration staying in solution when a stock, usually in DMSO, is diluted into the medium.

For series [1] the following is noted: mouse, in vivo.
For series [2] the following is noted: mouse, microsomes.
The conditions of series [3]: plasma.
The conditions of series [4]: pH 7.4.
Series [5] relates to cell viability.
Series [6] is described as follows: in vitro. The following applies: mouse, microsomes.
The test system of series [7] is vesicular stomatitis virus particles (VSV) pseudotyped with EboV Zaire GP. Nature of the series: microbe, parasite or virus in culture. Type of series: cell-based.
The nature of series [8]: physchem. The conditions noted are these: pH 7.4, aqueous buffer, kinetic from dmso stock.

Where two headings read alike, the source gives them in different places.

For the compound `CS(=O)(=O)c1ccc(CNc2ccc(Cl)cc2CN2CCN(C(=O)CNC(=O)C3CC34CCC(F)(F)CC4)CC2)cc1` (single isomer, unassigned; (-)) [(−)-1503], the maximum concentration (Cmax) in series [1] (po, 50 mg/kg) is 7.4 µM.

Take `CS(=O)(=O)c1ccc(COc2ccc(Cl)cc2CN2CCN(C(=O)CNC(=O)C3CC34CCC(F)(F)CC4)CC2)cc1` (single isomer, unassigned; (-)) [(−)-1476]: the “MLM, T½ (min) (ritonavir 3 μM)” value in series [2] is listed as over 120 min. In series [1], the “C@12 hr” value was 4.7 µM, the “Cl_obs” value turned out to be 11.9 mL/min/kg and the “Plasma concentration after 12 hours relative to in vitro IC50 against rVSV EBOV infection in 50% human serum” value amounted to 50 fold. In series [1] (po, 50 mg/kg), the “AUClast” value was 116.4 µM·h, the peak level (Cmax) was 10.4 µM, the “T1/2” value is 132 min and the time to peak (Tmax) amounted to 240 min. Further, the “Mouse PPB (% bound)” value in series [3] was 97.6%. Also, the Kinetic solubility in series [4] is 10 µM.

Consider `Nc1ccc(Cl)cc1CN1CCN(C(=O)CNC(=O)C2CC23CCC(F)(F)CC3)CC1` (single isomer, unassigned; (-)) [(−)-1413], for which, in series [1] (po, 50 mg/kg), the peak level (Cmax) was 19.5 µM.

As to `CS(=O)(=O)c1ccc(COc2ccc(Cl)cc2CN2CCN(C(=O)CNC(=O)C3CC34CCC(F)(F)CC4)CC2)cc1` (racemic) [(racemic)-1476], the “Concentration required to reduce cell viability by 50%” value in series [5] is reported as “exceeded 10 μM”.

Compound `O=C(CC12CC3(F)CC(F)(CC(F)(C3)C1)C2)NCC(=O)N1CCN(Cc2ccccc2OCc2ccc(Br)cc2)CC1` [Compound 1254] returned a half-life in series [6] (pH 7.4, MLM T½ (min)) of 1 min. Besides, the half-maximal inhibitory concentration (IC50) in series [7] (Vesicular stomatitis virus) amounted to 0.2 µM.

Regarding `Nc1ccc(Cl)cc1CN1CCN(C(=O)CNC(=O)C2CC23CCC(F)(F)CC3)CC1` (centres unmarked) [Compound 1373, N-(2-(4-(2-Amino-5-chlorobenzyl)piperazin-1-yl)-2-oxoethyl)-6,6-difluorospiro[2.5]octane-1-carboxamide], the half-life in series [6] (pH 7.4, T1/2(min)) was found to be 1.3 min. For the same compound, the IC50 in series [7] (Vesicular stomatitis virus) came to 0.1 µM.

`Nc1ccc(Cl)cc1CN1CCN(C(=O)CNC(=O)CC2CCC(F)(F)CC2)CC1` [Compound 1343, N-(2-(4-(2-Amino-5-chlorobenzyl)piperazin-1-yl)-2-oxoethyl)-2-(4,4-difluorocyclohexyl)acetamide]: in series [8], the solubility (kinetic) was over 100 µM. Further, the half-life is 9 min in series [6] (pH 7.4, MLM T½ (min)) and 8.7 min in series [6] (pH 7.4, T1/2(min)). The concentration for half-maximal inhibition (IC50) in series [7] (Vesicular stomatitis virus) is 0.32 µM. The “Mouse PPB (% bound)” value in series [3] is 86.9%. In addition, the “Sol” value in series [4] was over 100 mM.

With `[2H]C([2H])(c1cc(Cl)ccc1NCc1ccc(S(C)(=O)=O)cc1)N1CCN(C(=O)CNC(=O)C2CC23CCC(F)(F)CC3)CC1` (racemic) [(racemic)-1503], in series [5], the “Concentration required to reduce cell viability by 50%” value is on record as “exceeded 10 μM”.

As for `[2H]C([2H])(c1cc(Cl)ccc1N)N1CCN(C(=O)CNC(=O)C2CC23CCC(F)(F)CC3)CC1` (centres unmarked) [Compound 1413, N-(2-(4-((2-amino-5-chlorophenyl)methyl-d2)piperazin-1-yl)-2-oxoethyl)-6,6-difluorospiro[2.5]octane-1-carboxamide], the “T1/2 (min)” value in series [2] (pH 7.4) was 13/215 min. The compound also had a solubility (kinetic) in series [8] of over 100 µM. In addition, the half-life in series [6] (pH 7.4, Microsome T1/2) was 1.4 to 2 min; in series [6] (pH 7.4, T1/2(min)) it was 2 min; in series [6] (pH 7.4, T1/2 + ritonavir (min)) it was 215 min. For the same compound, the IC50 in series [7] was found to be 0.13 µM; in series [7] (Vesicular stomatitis virus), 0.068 µM.

In turn, `O=C(NCC(=O)N1CCN(Cc2cc(Cl)cc3cn[nH]c23)CC1)C1CC12CCC(F)(F)CC2` (centres unmarked) [Compound 1421, N-(2-(4-((5-Chloro-JH-indazol-7-yl)methyl)piperazin-1-yl)-2-oxoethyl)-6,6-difluorospiro[2.5]octane-1-carboxamide] gave a half-inhibitory concentration (IC50) in series [7] (Vesicular stomatitis virus) of over 5 µM.

`Nc1cc(Br)cc(CN2CCN(C(=O)CNC(=O)CC34CC5CC(CC(C5)C3)C4)CC2)c1` [Compound 1341, 2-((1R,3R,5S)-Adamantan-1-yl)-N-(2-(4-(3-amino-5-bromobenzyl)piperazin-1-yl)-2-oxoethyl)acetamide] gave a 50% inhibitory concentration (IC50) in series [7] (Vesicular stomatitis virus) of 0.32 µM.

The compound `O=C(NCC(=O)N1CCN(Cc2cc(Br)ccc2Cl)CC1)C1C2CC(F)(F)CC21` (centres unmarked) [Compound 1356, N-(2-(4-(5-bromo-2-chlorobenzyl)piperazin-1-yl)-2-oxoethyl)-3,3-difluorobicyclo[3.1.0]hexane-6-carboxamide] yielded an IC50 in series [7] (Vesicular stomatitis virus) of over 2 µM.

In series [7] (Vesicular stomatitis virus), `[2H]C([2H])(c1cc(Cl)cc2cc[nH]c12)N1CCN(C(=O)CNC(=O)CC2CCC(F)(F)CC2)CC1` [Compound 1433, N-(2-(4-((5-Chloro-JH-indol-7-yl)methyl-d2)piperazin-1-yl)-2-oxoethyl)-2-(4,4-difluorocyclohexyl)acetamide] registered a half-inhibitory concentration (IC50) of over 5 µM.

As to `CN(C)S(=O)(=O)c1ccc(COc2ccccc2CN2CCN(C(=O)CNC(=O)CC34CC5CC(CC(C5)C3)C4)CC2)cc1` [Compound 1258], the IC50 in series [7] (Vesicular stomatitis virus) was 0.4 µM.

Compound `O=C(CC12CC3CC(CC(Br)(C3)C1)C2)NCC(=O)N1CCN(Cc2ccccc2OCc2ccc(Br)cc2)CC1` [Compound 1245] came in with an IC50 in series [7] (Vesicular stomatitis virus) of 0.6 µM. This IC50 and that of the compound before are within 1.5-fold of each other.

In series [7] (Vesicular stomatitis virus), `O=C(CC1CCC(F)(F)CC1)NCC(=O)N1CCN(Cc2cc(F)cc3cccnc23)CC1` [Compound 1429, 2-(4,4-Difluorocyclohexyl)-N-(2-(4-((6-fluoroquinolin-8-yl)methyl)piperazin-1-yl)-2-oxoethyl)acetamide] registered a 50% inhibitory concentration (IC50) of 0.95 µM. This IC50 lies about 1.6-fold higher than the previous one.

In series [7] (Vesicular stomatitis virus), `O=C(CC12CC3CC(CC(C3)C1)C2)NCC(=O)N1CCN(Cc2c(F)ccc(Cl)c2F)CC1` [Compound 1306, 2-((1R,3R,5S)-Adamantan-1-yl)-N-(2-(4-(3-chloro-2,6-difluorobenzyl)piperazin-1-yl)-2-oxoethyl)acetamide] displayed an IC50 of 1.35 µM.

With `COC(=O)c1ccc(COc2ccc(C)cc2CN2CCN(C(=O)CNC(=O)CC34CC5CC(CC(C5)C3)C4)CC2)cc1` [Compound 1114], in series [7] (Vesicular stomatitis virus), the half-maximal inhibitory concentration (IC50) was under 2 µM.

`CNc1ccc(Cl)cc1CN1CCN(C(=O)CNC(=O)C2CC23CCC(F)(F)CC3)CC1` (centres unmarked) [Compound 1391, N-(2-(4-(5-Chloro-2-(methylamino)benzyl)piperazin-1-yl)-2-oxoethyl)-6,6-difluorospiro[2.5]octane-1-carboxamide] yielded an IC50 in series [7] (Vesicular stomatitis virus) of 0.08 to 0.26 µM.

`Nc1ccc(Br)cc1CN1CCN(C(=O)CNC(=O)C2C3CC(F)(F)CC32)CC1` (centres unmarked) [Compound 1362, N-(2-(4-(2-Amino-5-bromobenzyl)piperazin-1-yl)-2-oxoethyl)-3,3-difluorobicyclo[3.1.0]hexane-6-carboxamide] showed an IC50 in series [7] (Vesicular stomatitis virus) of over 2 µM.

In turn, `N#Cc1ccc(Br)cc1CN1CCN(C(=O)CNC(=O)CC23CC4CC(CC(C4)C2)C3)CC1` [Compound 1329, 2-((1R,3R,5S)-Adamantan-1-yl)-N-(2-(4-(5-bromo-2-cyanobenzyl)piperazin-1-yl)-2-oxoethyl)acetamide] came in with an IC50 in series [7] (Vesicular stomatitis virus) of 0.31 µM.

In series [7] (Vesicular stomatitis virus), `Nc1ccc(Cl)cc1CN1CCN(C(=O)CNC(=O)C2CC23CCC3)CC1` (centres unmarked) [Compound 1807, N-(2-(4-(2-Amino-5-chlorobenzyl)piperazin-1-yl)-2-oxoethyl)spiro[2.3]hexane-1-carboxamide] registered an IC50 of 2.5 µM.

`O=C(CC12CC3CC(CC(C3)C1)C2)NCC(=O)N1CCN(Cc2cc(Cl)cc(Br)c2)CC1` [Compound 1332, 2-((1R,3R,5S)-Adamantan-1-yl)-N-(2-(4-(3-bromo-5-chlorobenzyl)piperazin-1-yl)-2-oxoethyl)acetamide] gave a concentration for half-maximal inhibition (IC50) in series [7] (Vesicular stomatitis virus) of 0.9 µM. Compared with the last compound, the IC50 is about 2.8-fold lower.

`NC(=O)c1ccc(Cl)cc1CN1CCN(C(=O)CNC(=O)CC23CC4CC(CC(C4)C2)C3)CC1` [Compound 1804] showed an IC50 in series [7] (Vesicular stomatitis virus) of 1.9 µM.

Regarding `O=C(CC1CCC(F)(F)CC1)NCC(=O)N1CCN(Cc2cc(Br)ccc2O)CC1` [Compound 1400, N-(2-(4-(5-Bromo-2-hydroxybenzyl)piperazin-1-yl)-2-oxoethyl)-2-(4,4-difluorocyclohexyl)acetamide], in series [7] (Vesicular stomatitis virus), the IC50 was 0.67 µM.

`COC(=O)c1ccc(COc2ccccc2CN2CCN(C(=O)CNC(=O)CC3(C)CCCCC3)CC2)cc1` [Compound 1311, Methyl 4-((2-((4-((2-(1-methylcyclohexyl)acetyl)glycyl)piperazin-1-yl)methyl)phenoxy)methyl)benzoate]: the concentration for half-maximal inhibition (IC50) in series [7] (Vesicular stomatitis virus) was 0.08 µM.

Compound `COC(=O)c1cccc(-c2cc(Cl)cc(CN3CCN(C(=O)CNC(=O)CC45CC6CC(C4)C(C6)C5)CC3)c2)c1` [Compound 1441] displayed an IC50 in series [7] (Vesicular stomatitis virus) of 0.248 µM.

In series [7] (Vesicular stomatitis virus), `[2H]C([2H])(c1cc(Cl)ccc1NCc1ccon1)N1CCN(C(=O)CNC(=O)[C@@H]2CC23CCC(F)(F)CC3)CC1` [Compound 1581] registered an IC50 of 0.47 µM.

On to `Nc1ccc(C2CC2)cc1CN1CCN(C(=O)CNC(=O)C2CC23CCC(F)(F)CC3)CC1` (centres unmarked) [Compound 1397], for which the IC50 in series [7] (Vesicular stomatitis virus) is 2.4 to 4.2 µM.

`O=C(CC1CCC(F)(F)CC1)NCC(=O)N1CCN(Cc2cc(Cl)ccc2OC(F)(F)F)CC1` [Compound 1372] showed a 50% inhibitory concentration (IC50) in series [7] (Vesicular stomatitis virus) of over 2 µM.

`CS(=O)(=O)c1ccc(Oc2cc(F)cc(CN3CCN(C(=O)CNC(=O)CC4CCC(F)(F)CC4)CC3)c2)cc1` [Compound 1460]: in series [7] (Vesicular stomatitis virus), the IC50 is over 1 µM.

`O=C(CC12CC3CC(CC(C3)C1)C2)NCC(=O)N1CCN(Cc2c(Cl)cccc2Cl)CC1` [Compound 1363, 2-((1R,3R,5S)-Adamantan-1-yl)-N-(2-(4-(2,6-dichlorobenzyl)piperazin-1-yl)-2-oxoethyl)acetamide]: the concentration for half-maximal inhibition (IC50) in series [7] (Vesicular stomatitis virus) came to 1 µM.

As to `CCC1(CC)CC1C(=O)NCC(=O)N1CCN(Cc2cc(Cl)ccc2O)CC1` (centres unmarked) [Compound 1399, N-(2-(4-(5-Chloro-2-hydroxybenzyl)piperazin-1-yl)-2-oxoethyl)-2,2-diethylcyclopropane-1-carboxamide], inhibition in series [7] (Vesicular stomatitis virus) was half-maximal at 0.22 µM (IC50). This IC50 lies about 4.5-fold lower than the previous one.

In the case of `CS(=O)(=O)c1ccc(COc2ccc(Cl)cc2CN2CCN(C(=O)CNC(=O)C3CC34CCC(F)(F)CC4)CC2)nc1` (centres unmarked) [Compound 1621, 6,6-Difluoro-spiro[2.5]octane-1-carboxylic acid (2-{4-[5-chloro-2-(5-methanesulfonyl-pyridin-2-ylmethoxy)-benzyl]-piperazin-1-yl}-2-oxo-ethyl)-amide], half-maximal inhibition in series [7] (Vesicular stomatitis virus) (IC50) was put at 0.03 µM.
